Test results from US20200368314A1, “PEPTIDES FOR TREATMENT AND PREVENTION OF NONALCOHOLIC FATTY LIVER DISEASE” (UNIVERSITE DE STRASBOURG, priority 2017, published 2020).
“Also recorded” adds a separate entry of the source.

Tests used:
DIO male mice = test: Oral glucose tolerance test, PATAD, metformin or both; conditions: PATAD injection, metformin daily oral gavage
[1] = test system: FATP2 (Fatty acid transport protein 2); test: q-PCR expression of fatty acid transporters in adipose tissue; type: in vivo, mouse; conditions: high fat/high glucose diet male mice; 11 days post single injection; GAPDH reference gene
Source text: n=4 animals per group, GAPDH was used as reference gene. There are 6 isoforms of FATP (FATP1-6 also known as SLC27A1-SLC27A6).
As PATAD subcutaneous injection relates to restoration of glucose absorption in the adipose tissue, the inventors measured the expression levels of all 6 isoforms for the FATPs (1-6) (Fatty acid transport protein 1-6) and the 4 isoforms of the FFAR (Free Fatty Acid Receptor) to assess any effect on these genes.
All peptides were initially dissolved in DMSO and then diluted in sterile saline solution at a concentration of 10 ng/μL. 2.5 μL of each peptide (stapled or scrambled) were mixed and then injected directly in the subcutaneaous adipose tissue in each mouse. […]
Total RNA was prepared from the different tissues and cells using a RiboPure™ kit (Catalog #: AM1924; Ambion) followed by a DNAse treatment with the TURBO DNA-Free™ (Catalog #: AM 1907; Ambion). RNA integrity was assessed by gel electrophoresis and RNA concentration by Eppendorf Biophotometer Plus with the Hellma® Tray Cell (Catalog #: 105.810-uvs; Hellma). […] Real-time quantitative polymerase chain reaction amplification was performed in a BioRad CFX96™ Real-Time System using the iQ™ SYBR® Green Supermix (Catalog #: 170-8886; BioRAd) and primer sets optimized for tested targets for SYBR Green-based real-time PCR for the real-time PCR. […]

albumin = test: Plasma free albumin determination; type: in vivo, mouse; conditions: 3 months after PATAD injection, N=5
Protocol: Lipids are transported bound to albumin and therefore plasma content of free albumin was measured as a readout of the effect of PATAD stapled peptide sequence A on circulating lipid profile 3 months after PATAD injection. N=5 mice per group.
A decreased circulating free albumin concentration has been observed when the mice were treated with PATAD stapled peptide sequence A indicating an increase in the levels of circulating lipids (FIG. 6).
(§1) For GLP-1 measurement, a commercially available kit was used. RayBio Human/Mouse/Rat GLP-1 Enzyme Immunoassay Kit, EIA-GLP1, RayBiotech were used with the indicated procedures from the manufacturer. For the plasma albumin level determination, a commercially available kit was used.

GLP-1 = test: Circulating GLP-1 enzyme immunoassay; type: in vivo, mouse; conditions: plasma; 11 days post single injection
Protocol: FIG. 4: PATAD stapled peptide sequence A reduces FATP2 expression level in the adipose tissue and increases GLP-1 circulating levels • (A)4 month-old male mice fed with a high fat/high glucose diet were used in this set of experiment.
Mice were injected with a single dose of either scramble peptide or PATAD stapled peptide sequence A. 11 days post injection, the mice were euthanized, and plasma was obtained and used for determination of circulating GLP1 from mice with the indicated treatment.
as §1

[2] = test system: ALT (Alanine Aminotransferase); test: Plasma ALT ELISA; type: in vivo, mouse; conditions: 3 months after a single subcutaneous injection, n=4
Protocol: (§2) Mean values of both AST and ALT measured by ELISA approach in plasma of mice with the indicated treatment. n=4 samples per group.
(§3) Mice presented in FIG. 1 were euthanized and their plasma and organs were sampled for analysis. […] Cryosection of the livers were then stained with Adipored and DAPI to detect the level of lipid droplets. […] Hepatic function is assessed by two liver related strong biomarkers namely (AST (Aspartate Aminotransferase) and ALT (Alanine Aminotransferase)), whose levels increase proportionately with liver damage.
(§4) Plasma samples from the indicated mice were used to determine plasma content of either AST (aspartate aminotransferase) or […] (alanine aminotransferase) both robust indicators of liver damage were measured using commercially purchased ELISA kits. These parameters were determined according to manufacturer's procedure.
SEA207Mu (96 Tests): Enzyme-linked Immunosorbent Assay Kit For Alanine Aminotransferase (ALT), Cloud Clone Corp

[3] = test system: AST (Aspartate Aminotransferase); test: Plasma AST ELISA; type: in vivo, mouse; conditions: 3 months after a single subcutaneous injection, n=4
Protocol: as §2, §3, §4
SEB214Mu (96 Tests): Enzyme-linked Immunosorbent Assay Kit For Aspartate Aminotransferase (AST), Cloud Clone Corp

| Compound | onset of the effect on the GTT (DIO male mice) | FATP2 expression level in the adipose tissue [1] | circulating free albumin concentration (albumin) | circulating GLP-1 concentration (GLP-1) | circulating ALT level [2] | circulating AST level [3] |
| --- | --- | --- | --- | --- | --- | --- |
| CN(C)C(=N)N=C(N)N [metformin] | delayed by one week | – | – | – | – | – |
| VE CTM-[2-(4-pentenyl) alanine]-EK RVL A-[2-(4-pentenyl)alanine]-L DKP PFL TQL HS [PATAD stapled peptide sequence A] | – | decreased; also recorded: reduces | decreased | restored high circulating levels; also recorded: restore GLP1 circulating levels back to lean controls | effective in reducing | effective in reducing |
